# Earlier results as cited in US20140296485A1, “ANIONIC DISPLACER MOLECULES FOR HYDROPHOBIC DISPLACEMENT CHROMATOGRAPHY” (SACHEM, INC., priority 2011, published 2014).
# Details: pH-buffering compounds
row,Compound,pKa of pH buffer
1,O=C(O)CCC(=O)O [succinic acid],5.2
2,"CC(C)(CC(=O)O)CC(=O)O [3,3-dimethylglutaric acid]",5.9
